Structures can show the parent of a compound that is named as a salt. Where two headings read alike, the source gives them in different places.
Key:
[1] = system: human prostate cancer cells LNCaP; test: Cell viability inhibition assay (CTG) on LNCaP cells in presence of DHT; format: cell-based; conditions: read-out: Inhibitory activity against human prostate cancer cell LNCaP IC50
From the text: Human prostate cancer cells LNCaP and human prostate cancer cells 22Rvl are present in patients with prostate cancer. An androgen, DHT, is able to promote the growth of human prostate cancer cells LNCaP. Using the cell model described above was intended to study the inhibitory effects of the compounds of the present disclosure on the growth of human prostate cancer cells (human prostate cancer cells LNCaP and human prostate cancer cells 22Rvl) in the presence or absence of DHT.
The medium in the culture dish was discarded, and 5 mL of trypsin was added for digestion for about 3 mins. The digestion was stopped by adding 10 mL of a fresh medium. The cells were fully pipetted and transferred to a 15 mL centrifuge tube, and the cells were collected by centrifugation at 1000 rpm for 5 mins. The cells collected by centrifugation were resuspended in 11 mL of a fresh medium. 1 mL of the cells was taken and counted, and the cell viability was detected. The cell density was adjusted to 1×10^4 cells/mL by adding an appropriate amount of the medium. The cells were seeded in a 96-well plate at 200 µL/well, and the plate was incubated overnight in a cell incubator.
After the cells were attached to the well, for the human prostate cancer cells LNCaP group, test compounds (0.1 μM, 0.3 μM, 1 μM, 3 μM, 10 μM, and 30 μM) and DHT (1 nM, inducing the expression of AR) were added to the 96-well plate, and the plate was incubated for another 5 days; for the human prostate cancer cells 22Rvl group, test compounds (0.1 μM, 0.3 μM, 1 μM, 3 μM, 10 μM, and 30 μM) were added to the 96-well plate, and the plate was incubated for another 5 days. […] The 96-well plate was equilibrated at room temperature for 30 mins. The cell viability was detected by using a CTG method. Before detection, CellTiter-Glo® Buffer and a substrate thereof (collectively called CTG reagent) were thawed and equilibrated to room temperature. Then, […] of Buffer was gently mixed with the substrate to form a homogeneous solution. The homogeneous solution was added to the 96-well plate at 100 µL/well, and the 96-well plate was incubated on a shaker for 15 mins. The fluorescence value in each well was then detected. The detection method for the fluorescence value in each well was as follows: after adding the CTG reagent, luminescence detection (integration time: 500 ms) was performed by using a correspondingly equipped multi-mode microplate reader (M200Pro, TECAN, Switzerland) according to the supplier's manual to quantify the effect of the inhibitor on the cell viability. For data analysis, an assay background value was subtracted from all data points, which was determined in wells containing the medium but no cells. Data were processed using the XLfit software (XLfit 5.2., IDBS, UK), and IC50 values of the test compounds were calculated.

[2] = biological target: T1, AR protein expression in human prostate cancer cells LNCaP (Homo sapiens, UniProt P10275, T878A); test: Reduction of AR protein expression in LNCaP cells (Western blot, with DHT); format: cell-based; conditions: 1 nM DHT; for anti-AR activity (in words): Western blot; for AR reduction percentage: 2.5 μmol/L compound; for AR reduction percentage / Relative potency (anti-AR activity): 48 h; for Relative potency (anti-AR activity): concentration basis not given
T1 sequence (P10275 1-920 T878A): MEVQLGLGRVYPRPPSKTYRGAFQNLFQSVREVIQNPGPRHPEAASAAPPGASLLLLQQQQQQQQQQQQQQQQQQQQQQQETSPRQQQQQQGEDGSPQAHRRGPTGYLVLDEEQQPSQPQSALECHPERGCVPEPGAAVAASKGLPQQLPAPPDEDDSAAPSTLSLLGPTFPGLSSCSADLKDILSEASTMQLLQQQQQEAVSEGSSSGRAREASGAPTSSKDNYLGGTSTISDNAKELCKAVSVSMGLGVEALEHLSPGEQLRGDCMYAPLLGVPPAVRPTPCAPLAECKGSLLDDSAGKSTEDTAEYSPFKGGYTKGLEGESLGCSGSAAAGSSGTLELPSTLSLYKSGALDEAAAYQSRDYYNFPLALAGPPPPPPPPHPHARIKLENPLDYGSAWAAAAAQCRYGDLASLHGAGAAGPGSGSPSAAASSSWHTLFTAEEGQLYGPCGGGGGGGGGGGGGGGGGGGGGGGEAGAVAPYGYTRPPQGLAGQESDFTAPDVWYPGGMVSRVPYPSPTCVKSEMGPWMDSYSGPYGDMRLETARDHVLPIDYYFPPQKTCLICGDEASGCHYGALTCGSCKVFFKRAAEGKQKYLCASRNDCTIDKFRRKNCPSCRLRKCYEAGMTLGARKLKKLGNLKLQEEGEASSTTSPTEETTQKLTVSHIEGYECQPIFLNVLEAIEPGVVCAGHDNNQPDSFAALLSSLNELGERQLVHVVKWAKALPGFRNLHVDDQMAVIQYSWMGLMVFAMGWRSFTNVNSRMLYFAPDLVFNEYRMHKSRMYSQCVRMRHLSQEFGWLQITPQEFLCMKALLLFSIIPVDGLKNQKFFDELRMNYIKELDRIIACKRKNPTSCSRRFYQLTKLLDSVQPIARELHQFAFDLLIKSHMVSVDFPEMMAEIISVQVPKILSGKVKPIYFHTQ
Procedure: The term “anti-AR activity” refers to the ability of the compound of the present disclosure to reduce AR expression in human prostate cancer cells LNCaP, and the ability of the compound of the present disclosure to reduce AR expression is expressed in AR reduction percentage (%) herein. […] The AR reduction percentage (%) is calculated as follows: AR reduction percentage (%)=(AR in DHT group/GAPDH value−AR in test compound group/GAPDH value)/AR in DHT group/GAPDH value×100%.
AR is a key factor for regulating the response of prostate cancer cells to androgens. AR is also a key factor for the response of hair follicles or tissues around the hair follicles to androgens, and the reduction of the AR content not only can down-regulate the growth of the prostate cancer cells, but also can inhibit androgenetic alopecia. This test example is to test the effects of the compounds of the present disclosure on the reduction of AR protein expression in human prostate cancer cells LNCaP in the presence of DHT. The compounds of the present disclosure were analyzed for anti-AR activity in human prostate cancer cells LNCaP by measuring the reduction of AR protein using the Western blot method.
Human prostate cancer cells LNCaP were seeded in a 6-well plate at 4×10^5 cells/mL and at a volume of 2 mL per well. The plate was incubated overnight in a cell incubator. DMSO and dihydrotestosterone (DHT, 1 nM) were used as control groups. Assays were performed in the presence of dihydrotestosterone (DHT, 1 nM). After incubating with the test compounds for a specified time, the cells were collected and dissolved according to the Western blot technique known in the biochemical art. A DMSO group, a DHT group (1 nM) and test compound groups (containing 1 nM DHT) were set during the assay. DMSO and DHT (1 nM DHT) were added to 6-well plates corresponding to the DMSO group and the DHT group, respectively. […] The protein concentration was quantified using the BCA kit, and then the samples were stored for later use.
The content of the AR protein in each group was determined by using Western Blot, and the loading amount of the sample in each group was […]. Western blot analysis has been disclosed in the prior art. Specifically, the cells were collected in 2× sodium dodecyl sulfate/polyacrylamide gel electrophoresis loading buffer or in radioimmunoprecipitation assay (RIPA) buffer strengthened with 10 μg/mL benzamidine, 10 μg/mL trypsin inhibitor, and 1 mM phenylmethylsulfonyl fluoride. A sample of total protein (about 40 μg) from each cell lysate was separated by electrophoresis on an SDS/PAGE gel. After separation by electrophoresis, the proteins were transferred from the gel to a nitrocellulose membrane following the standard procedures. The membrane was then incubated with 10% non-fat milk in phosphate-buffered saline supplemented with 0.1% Tween 20 (PBST) for 1 h, followed by incubation with a primary human AR-specific antibody (purchased from BD-Harlingen) at 4° C. overnight. After incubation, the membrane was washed 3 times with PBST buffer, each for 10 mins. An alkaline phosphatase-conjugated secondary antibody was then added, and the membrane was incubated at room temperature for 1 h. After the secondary incubation, the membrane was washed again with PBST, and the AR protein signal in the membrane was visualized by adding an alkaline phosphatase medium, bromochloroindolyl phosphate, and nitrotetrazole to the membrane. To ensure that an equal amount of protein from each sample was analyzed, a portion of the membrane was kept with a specific antibody for the regulatory protein GAPDH (Santa Cruz Biotechnology), and the GAPDH signal was visualized with the secondary antibody described above. The protein signal intensity (as indicated by color bands on the membrane) was measured using a densitometer and analyzed by the NIH Image J software (NIH1.33).

[3] = Homo sapiens, 120 h, 1 nM DHT, 5 days, CTG

SMILES	IC50 ([1]; Homo sapiens, 120 h) [nM]	IC50 [1, 3] [nM]	also measured
COc1ccc(/C=C/C(=O)C2(C(=O)/C=C/c3ccc(OC)c(OC)c3)CCN(C(=O)OC(C)(C)C)CC2)cc1OC [Compound 25]	1370	–	–
COc1ccc(/C=C/C(=O)C2(C(=O)/C=C/c3ccc(OC)c(OC)c3)CCC(N3CCC(F)(F)CC3)CC2)cc1OC [Compound 18 hydrochloride]	–	610	–
[2H]C([2H])([2H])Oc1ccc(/C=C/C(=O)C2(C(=O)/C=C/c3ccc(OC([2H])([2H])[2H])c(OC([2H])([2H])[2H])c3)C([2H])([2H])C2([2H])[2H])cc1OC([2H])([2H])[2H] [Compound 6]	2560	–	–
COc1ccc(/C=C/C(=O)C2(C(=O)/C=C/c3ccc(OC)c(OC)c3)CCC(O)CC2)cc1OC [Compound 13]	–	950	–
COc1ccc(/C=C/C(=O)C2(C(=O)/C=C/c3ccc(OC)c(OC)c3)CCC3(CC2)OCCO3)cc1OC [Compound 11]	–	980	–
[2H]C([2H])([2H])Oc1ccc(/C=C/C(=O)C2(C(=O)/C=C/c3ccc(OC([2H])([2H])[2H])c(OC([2H])([2H])[2H])c3)CCC2)cc1OC([2H])([2H])[2H] [Compound 2]	1820	–	–
[2H]C([2H])([2H])Oc1ccc(/C=C/C(=O)C2(C(=O)/C=C/c3ccc(OC([2H])([2H])[2H])c(OC([2H])([2H])[2H])c3)CCCC2)cc1OC([2H])([2H])[2H] [Compound 3]	1750	–	–
[2H]C([2H])([2H])Oc1ccc(/C=C/C(=O)C2(C(=O)/C=C/c3ccc(OC([2H])([2H])[2H])c(OC([2H])([2H])[2H])c3)CC2)cc1OC([2H])([2H])[2H] [Compound 1]	1710	–	–
COc1ccc(/C=C/C(=O)C2(C(=O)/C=C/c3ccc(OC)c(OC)c3)COC(=O)OC2)cc1OC [Compound 9]	3310	–	–
COc1ccc(/C=C/C(=O)C2(C(=O)/C=C/c3ccc(OC)c(OC)c3)CCC3(CC3)CC2)cc1OC [Compound 26]	620	–	–
COc1ccc(/C=C/C(=O)C2(C(=O)/C=C/c3ccc(OC)c(OC)c3)CCN(S(C)(=O)=O)CC2)cc1OC [Compound 24]	610	–	–
COc1ccc(/C=C/C(=O)C2(C(=O)/C=C/c3ccc(OC)c(OC)c3)CCC(N3CCOCC3)CC2)cc1OC [Compound 12]	–	–	IC50 ([1]; 1 nM DHT, 5 days, CTG): 1290 nM
COc1ccc(/C=C/C(=O)C2(C(=O)/C=C/c3ccc(OC)c(OC)c3)CC3(CC3)C2)cc1OC [Compound 5]	5480	–	–
COc1ccc(/C=C/C(=O)C2(C(=O)/C=C/c3ccc(OC)c(OC)c3)CCC(NC3CC(F)(F)C3)CC2)cc1OC [Compound 23 hydrochloride]	–	620	–
CCN(CC)C1CCC(C(=O)/C=C/c2ccc(OC)c(OC)c2)(C(=O)/C=C/c2ccc(OC)c(OC)c2)CC1 [Compound 16 hydrochloride]	370	–	–
COc1ccc(/C=C/C(=O)C2(C(=O)/C=C/c3ccc(OC)c(OC)c3)CCC(N3CCOCC3)CC2)cc1OC [Compound 12 hydrochloride]	–	–	IC50 ([1]; 1 nM DHT, 5 days, CTG, listed as 12 hydrochloride): 450 nM; anti-AR activity (in words) [2]: significant anti-AR activities; AR reduction percentage [2]: 86.2%; Relative potency (anti-AR activity) [2]: ++++++ (75 < * ≤ 100)
COc1ccc(/C=C/C(=O)C2(C(=O)/C=C/c3ccc(OC)c(OC)c3)CC=C(F)CC2)cc1OC [Compound 22]	–	3140	–
COc1ccc(/C=C/C(=O)C2(C(=O)/C=C/c3ccc(OC)c(OC)c3)CCC(N3CCCCC3)CC2)cc1OC [Compound 19 hydrochloride]	–	350	anti-AR activity (in words) [2]: significant anti-AR activities; AR reduction percentage [2]: 81.4%; Relative potency (anti-AR activity) [2]: ++++++ (75 < * ≤ 100)
